ChEMBL document CHEMBL4004849, “Tetrazolylmethyl quinolines: Design, docking studies, synthesis, anticancer and antifungal analyses” (2017)
≈ marks a conversion by molar mass, not a printed value. Calls of active or inactive are those of the source. The calls are words filed in the database; no cut-off is given here.

What was measured:
Type in all cases: functional
[1] = tested on: SK-MEL-5; experiment: Growth inhibition of human SK-MEL-5 cells at 10^-5 M incubated for 48 hrs by sulforhodamine B assay relative to control
[2] = tested on: SF-268; experiment: Growth inhibition of human SF268 cells at 10^-5 M incubated for 48 hrs by sulforhodamine B assay relative to control
[3] = tested on: A549; experiment: Growth inhibition of human A549/ATCC cells at 10^-5 M incubated for 48 hrs by sulforhodamine B assay relative to control
[4] = tested on: ACHN; experiment: Growth inhibition of human ACHN cells at 10^-5 M incubated for 48 hrs by sulforhodamine B assay relative to control
[5] = tested on: HCC 2998; experiment: Growth inhibition of human HCC2998 cells at 10^-5 M incubated for 48 hrs by sulforhodamine B assay relative to control
[6] = tested on: COLO 205; experiment: Growth inhibition of human COLO205 cells at 10^-5 M incubated for 48 hrs by sulforhodamine B assay relative to control
[7] = tested on: RXF 393; experiment: Growth inhibition of human RXF393 cells at 10^-5 M incubated for 48 hrs by sulforhodamine B assay relative to control
[8] = tested on: NCI-H23; experiment: Growth inhibition of human NCI-H23 cells at 10^-5 M incubated for 48 hrs by sulforhodamine B assay relative to control
[9] = tested on: OVCAR-8; experiment: Growth inhibition of human OVCAR8 cells at 10^-5 M incubated for 48 hrs by sulforhodamine B assay relative to control
[10] = tested on: HCT-116; experiment: Growth inhibition of human HCT116 cells at 10^-5 M incubated for 48 hrs by sulforhodamine B assay relative to control
[11] = tested on: Hs-578T; experiment: Growth inhibition of human Hs 578T cells at 10^-5 M incubated for 48 hrs by sulforhodamine B assay relative to control
[12] = tested on: K562; experiment: Growth inhibition of human K562 cells at 10^-5 M incubated for 48 hrs by sulforhodamine B assay relative to control
[13] = tested on: SF-295; experiment: Growth inhibition of human SF295 cells at 10^-5 M incubated for 48 hrs by sulforhodamine B assay relative to control
[14] = tested on: KM12; experiment: Growth inhibition of human KM12 cells at 10^-5 M incubated for 48 hrs by sulforhodamine B assay relative to control
[15] = tested on: U-251; experiment: Growth inhibition of human U251 cells at 10^-5 M incubated for 48 hrs by sulforhodamine B assay relative to control
[16] = tested on: SR; experiment: Growth inhibition of human SR cells at 10^-5 M incubated for 48 hrs by sulforhodamine B assay relative to control
[17] = tested on: SW-620; experiment: Growth inhibition of human SW620 cells at 10^-5 M incubated for 48 hrs by sulforhodamine B assay relative to control
[18] = tested on: Aspergillus fumigatus; experiment: Antifungal activity against Aspergillus fumigatus at 100 ug/ml by disc diffusion method; details: read-out: IZ
[19] = tested on: Malme-3M; experiment: Growth inhibition of human MALME-3M cells at 10^-5 M incubated for 48 hrs by sulforhodamine B assay relative to control
[20] = tested on: SK-MEL-28; experiment: Growth inhibition of human SK-MEL-28 cells at 10^-5 M incubated for 48 hrs by sulforhodamine B assay relative to control
[21] = tested on: SF-539; experiment: Growth inhibition of human SF539 cells at 10^-5 M incubated for 48 hrs by sulforhodamine B assay relative to control
[22] = tested on: CAKI-1; experiment: Growth inhibition of human Caki1 cells at 10^-5 M incubated for 48 hrs by sulforhodamine B assay relative to control
[23] = tested on: SNB-19; experiment: Growth inhibition of human SNB19 cells at 10^-5 M incubated for 48 hrs by sulforhodamine B assay relative to control
[24] = tested on: MOLT-4; experiment: Growth inhibition of human MOLT4 cells at 10^-5 M incubated for 48 hrs by sulforhodamine B assay relative to control
[25] = tested on: OVCAR-4; experiment: Growth inhibition of human OVCAR4 cells at 10^-5 M incubated for 48 hrs by sulforhodamine B assay relative to control
[26] = tested on: M14; experiment: Growth inhibition of human M14 cells at 10^-5 M incubated for 48 hrs by sulforhodamine B assay relative to control
[27] = tested on: SK-OV-3; experiment: Growth inhibition of human SKOV3 cells at 10^-5 M incubated for 48 hrs by sulforhodamine B assay relative to control
[28] = tested on: MDA-MB-468; experiment: Growth inhibition of human MDA-MB-468 cells at 10^-5 M incubated for 48 hrs by sulforhodamine B assay relative to control
[29] = tested on: NCI-H522; experiment: Growth inhibition of human NCI-H522 cells at 10^-5 M incubated for 48 hrs by sulforhodamine B assay relative to control
[30] = tested on: UACC-62; experiment: Growth inhibition of human UACC62 cells at 10^-5 M incubated for 48 hrs by sulforhodamine B assay relative to control
[31] = tested on: MDA-MB-231; experiment: Growth inhibition of human MDA-MB-231/ATCC cells at 10^-5 M incubated for 48 hrs by sulforhodamine B assay relative to control
[32] = tested on: HT-29; experiment: Growth inhibition of human HT-29 cells at 10^-5 M incubated for 48 hrs by sulforhodamine B assay relative to control
[33] = tested on: NCI-H226; experiment: Growth inhibition of human NCI-H226 cells at 10^-5 M incubated for 48 hrs by sulforhodamine B assay relative to control
[34] = tested on: MDA-MB-435; experiment: Growth inhibition of human MDA-MB-435 cells at 10^-5 M incubated for 48 hrs by sulforhodamine B assay relative to control
[35] = tested on: UACC-257; experiment: Growth inhibition of human UACC257 cells at 10^-5 M incubated for 48 hrs by sulforhodamine B assay relative to control
[36] = tested on: Candida albicans; experiment: Antifungal activity against Candida albicans at 100 ug/ml by disc diffusion method; details: read-out: IZ
[37] = tested on: BT-549; experiment: Growth inhibition of human BT549 cells at 10^-5 M incubated for 48 hrs by sulforhodamine B assay relative to control
[38] = tested on: OVCAR-3; experiment: Growth inhibition of human OVCAR3 cells at 10^-5 M incubated for 48 hrs by sulforhodamine B assay relative to control
[39] = tested on: MCF7; experiment: Growth inhibition of human MCF7 cells at 10^-5 M incubated for 48 hrs by sulforhodamine B assay relative to control
[40] = tested on: Aspergillus fumigatus; experiment: Antifungal activity against Aspergillus fumigatus after 24 hrs by serial dilution method
[41] = tested on: IGROV-1; experiment: Growth inhibition of human IGROV1 cells at 10^-5 M incubated for 48 hrs by sulforhodamine B assay relative to control
[42] = tested on: NCI-H460; experiment: Growth inhibition of human NCI-H460 cells at 10^-5 M incubated for 48 hrs by sulforhodamine B assay relative to control
[43] = tested on: OVCAR-5; experiment: Growth inhibition of human OVCAR5 cells at 10^-5 M incubated for 48 hrs by sulforhodamine B assay relative to control
[44] = tested on: UO-31; experiment: Growth inhibition of human UO31 cells at 10^-5 M incubated for 48 hrs by sulforhodamine B assay relative to control

## Fc1ccc2nc(Cl)c(Cn3nnnc3CSc3ccccc3)cc2c1
[1]
  growth inhibition (GI): Active
[2]
  growth inhibition (GI): Active
[3]
  growth inhibition (GI): Active
[4]
  growth inhibition (GI): Active
[5]
  growth inhibition (GI): Active
[6]
  growth inhibition (GI): Active
[7]
  growth inhibition (GI): Active
[8]
  growth inhibition (GI): Active
[9]
  growth inhibition (GI): Active
[10]
  growth inhibition (GI): Active
[11]
  growth inhibition (GI): Active
[12]
  growth inhibition (GI): Active
[13]
  growth inhibition (GI): Active
[14]
  growth inhibition (GI): Active
[15]
  growth inhibition (GI): Active
[16]
  growth inhibition (GI): Active
[17]
  growth inhibition (GI): Active
[18]
  zone of inhibition at 100 µg/mL: 14 mm
[19]
  growth inhibition (GI): Active
[20]
  growth inhibition (GI): Active
[21]
  growth inhibition (GI): Active
[22]
  growth inhibition (GI): Active
[23]
  growth inhibition (GI): Active
[24]
  growth inhibition (GI): Active
[25]
  growth inhibition (GI): Active
[26]
  growth inhibition (GI): Active
[27]
  growth inhibition (GI): Active
[28]
  growth inhibition (GI): Active
[29]
  growth inhibition (GI): Active
[30]
  growth inhibition (GI): Active
[31]
  growth inhibition (GI): Active
[32]
  growth inhibition (GI): Active
[33]
  growth inhibition (GI): Active
[34]
  growth inhibition (GI): Active
[35]
  growth inhibition (GI): Active
[36]
  zone of inhibition at 100 µg/mL: 13 mm
[37]
  growth inhibition (GI): Active
[38]
  growth inhibition (GI): Active
[39]
  growth inhibition (GI): Active
[40]
  MIC: 2.5 µg/mL (≈ 6.48 µM)
[41]
  growth inhibition (GI): Active
[42]
  growth inhibition (GI): Active
[43]
  growth inhibition (GI): Active
[44]
  growth inhibition (GI): Active

## Clc1nc2ccccc2cc1Cn1nnc(Cc2ccccc2)n1
[1]; SK-MEL-5, 48 h, read-out: GI
  inhibition of growth at 10 µM: 99.3%
[2]; SF-268, 48 h, read-out: GI
  inhibition of growth at 10 µM: 34.3%
[3]; A549, 48 h, read-out: GI
  inhibition of growth at 10 µM: 46.1%
[4]; read-out: GI
  inhibition of growth at 10 µM: 47.8%
[5]; HCC 2998, 48 h, read-out: GI
  inhibition of growth at 10 µM: 18.7%
[6]; COLO 205, 48 h, read-out: GI
  inhibition of growth at 10 µM: 17.3%
[7]; RXF 393, 48 h, read-out: GI
  inhibition of growth at 10 µM: 16.1%
[8]; NCI-H23, 48 h, read-out: GI
  inhibition of growth at 10 µM: 54.5%
[9]; OVCAR-8, 48 h, read-out: GI
  inhibition of growth at 10 µM: 28.4%
[10]; HCT-116, 48 h, read-out: GI
  inhibition of growth at 10 µM: 64.9%
[11]; read-out: GI
  inhibition of growth at 10 µM: 23.4%
[12]; K562, 48 h, read-out: GI
  inhibition of growth at 10 µM: 44.8%
[13]; SF-295, 48 h, read-out: GI
  inhibition of growth at 10 µM: 52.4%
[14]; KM12, 48 h, read-out: GI
  inhibition of growth at 10 µM: 33.7%
[15]; U-251, 48 h, read-out: GI
  inhibition of growth at 10 µM: 23.7%
[16]; read-out: GI
  inhibition of growth at 10 µM: 63%
[17]; SW-620, 48 h, read-out: GI
  inhibition of growth at 10 µM: 13.4%
[18]
  zone of inhibition at 100 µg/mL: 16 mm
[19]; read-out: GI
  inhibition of growth at 10 µM: 34.4%
[20]; SK-MEL-28, 48 h, read-out: GI
  inhibition of growth at 10 µM: 15.3%
[21]; SF-539, 48 h, read-out: GI
  inhibition of growth at 10 µM: 18.8%
[22]; CAKI-1, 48 h, read-out: GI
  inhibition of growth at 10 µM: 59.5%
[23]; SNB-19, 48 h, read-out: GI
  inhibition of growth at 10 µM: 10.2%
[24]; MOLT-4, 48 h, read-out: GI
  inhibition of growth at 10 µM: 56.9%
[25]; OVCAR-4, 48 h, read-out: GI
  inhibition of growth at 10 µM: 70.3%
[26]; M14, 48 h, read-out: GI
  inhibition of growth at 10 µM: 26.4%
[27]; SK-OV-3, 48 h, read-out: GI
  inhibition of growth at 10 µM: 42.6%
[28]; MDA-MB-468, 48 h, read-out: GI
  inhibition of growth at 10 µM: 88.9%
[29]; NCI-H522, 48 h, read-out: GI
  inhibition of growth at 10 µM: 57.9%
[30]; UACC-62, 48 h, read-out: GI
  inhibition of growth at 10 µM: 48.3%
[31]; MDA-MB-231, 48 h, read-out: GI
  inhibition of growth at 10 µM: 47%
[32]; HT-29, 48 h, read-out: GI
  inhibition of growth at 10 µM: 28.4%
[33]; NCI-H226, 48 h, read-out: GI
  inhibition of growth at 10 µM: 41.8%
[34]; MDA-MB-435, 48 h, read-out: GI
  inhibition of growth at 10 µM: 34.7%
[35]; UACC-257, 48 h, read-out: GI
  inhibition of growth at 10 µM: 46.4%
[36]
  zone of inhibition at 100 µg/mL: 10 mm
[37]; BT-549, 48 h, read-out: GI
  inhibition of growth at 10 µM: 61.1%
[38]; OVCAR-3, 48 h, read-out: GI
  inhibition of growth at 10 µM: 40.5%
[39]; MCF7, 48 h, read-out: GI
  inhibition of growth at 10 µM: 54.2%
[40]
  MIC: 50 µg/mL (≈ 149 µM)
[41]; IGROV-1, 48 h, read-out: GI
  inhibition of growth at 10 µM: 49.1%
[42]; NCI-H460, 48 h, read-out: GI
  inhibition of growth at 10 µM: 25.7%
[43]; OVCAR-5, 48 h, read-out: GI
  inhibition of growth at 10 µM: -4.25%
[44]; UO-31, 48 h, read-out: GI
  inhibition of growth at 10 µM: 181%
